The source of these data is ChEMBL document CHEMBL1177644, “16-bromoepiandrosterone, an activator of the mammalian immune system, inhibits glucose 6-phosphate dehydrogenase from Trypanosoma cruzi and is toxic to these parasites grown in culture” (Bioorg Med Chem, 2010).

For assay [1], the system named is Trypanosoma cruzi. In words: Antitrypanosomal activity against Trypanosoma cruzi Y epimastigotes assessed as viability after 72 hrs by MTS assay. The class given is functional. The following applies: read-out: LD50 (the source's name). Background: Formazan colour is commonly taken as a measure of viable cells.
The nature of assay [2]: Inhibition of His-tagged Trypanosoma cruzi G6PDH expressed in Escherichia coli BL21 by spectrophotometry.

As for `C[C@]12CC[C@H](O)CC1=CC[C@@H]1[C@@H]2CC[C@]2(C)C(=O)[C@H](Br)C[C@@H]12`, the LC50 in assay [1] is 20.6 µM. Besides, 0.216 µM corresponded to half-maximal inhibition in assay [2] (IC50).
Take `C[C@]12CC[C@H](O)CC1=CC[C@@H]1[C@@H]2CC[C@]2(C)C(=O)CC[C@@H]12` [PRASTERONE]: the IC50 – broadly, the point on the concentration scale where inhibition reaches its midpoint – in assay [2] stood at 25 µM.
For `C[C@]12CC[C@H](O)C[C@@H]1CC[C@@H]1[C@@H]2CC[C@]2(C)C(=O)[C@H](Br)C[C@@H]12` [16.ALPHA.-BROMOEPIANDROSTERONE], in assay [1], the LC50 turned out to be 12.4 µM. In addition, the 50% inhibitory concentration (IC50) in assay [2] was 0.086 µM.
For `C[C@]12CC[C@H](O)C[C@@H]1CC[C@@H]1[C@@H]2CC[C@]2(C)C(=O)CC[C@@H]12` [EPIANDROSTERONE] the same measures were 36.5 µM and 5.6 µM.
